Reference: PubChem BioAssay AID1259246 (Broad Institute, 2017)
Records with an inconclusive call do not appear. The source made the active and inactive calls.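 Rule for the calls: active = valid dose-response fit whose half-maximal growth-inhibiting concentration is at or below a set limit above the top tested dose; inconclusive = flat fit with effect between 30 and 70%, or poor fit; inactive = half-maximal concentration above a set limit.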

Experiment: antibacterial activity against Clostridioides difficile – 10-point retest, dose response (AID 1259246)
Settings: Clostridioides difficile clinical isolate growth, OD600, 24 h; at 60 µM (top of the series)

Which activity change, negative = inhibition does the source give for COc1ccccc1CNC(=O)C[C@H]1C[C@@H]2c3cc(NC(=O)C4CCC4)ccc3O[C@@H]2[C@@H](CO)O1 here?
Its activity change, negative = inhibition is 2.54% (inactive).

With CNC[C@@H]1Oc2ccc(N)cc2CC(=O)N([C@H](C)CO)C[C@H]1C as the molecule, how does the activity change, negative = inhibition read?
The activity change, negative = inhibition was 0.918% (inactive).

With COc1ccccc1C#Cc1ccc([C@H]2[C@@H](C#N)N(C(=O)C3CCCCC3)[C@H]2CO)cc1 as the molecule, how does the activity change, negative = inhibition read?
The activity change, negative = inhibition was 5.31% (inactive).

With C[C@H](CO)N1C[C@H](C)[C@@H](CN(C)S(=O)(=O)c2ccc(Cl)cc2)Oc2c(NC(=O)Nc3ccc(C(F)(F)F)cc3)cccc2C1=O as the molecule, how does the activity change, negative = inhibition read?
The activity change, negative = inhibition was 25% (inactive).

For CCCNC(=O)C[C@@H]1CC[C@H]2[C@H](COc3ccc(NC(=O)c4cccc(Cl)c4)cc3C(=O)N2C)O1, which activity change, negative = inhibition is on record?
Its activity change, negative = inhibition is 10.3% (inactive).

For C[C@@H]1CN([C@@H](C)CO)S(=O)(=O)c2ccc(/C=C/c3ccccc3)cc2O[C@H]1CN(C)Cc1ccccc1, which activity change, negative = inhibition is on record?
The activity change, negative = inhibition was 2.6% (inactive).

Same assay, conditions: Clostridioides difficile clinical isolate growth, OD600, 24 h; at 120 µM (top of the series)

For COc1ccc(S(=O)(=O)N(C)C[C@H]2Oc3c(NS(=O)(=O)c4ccccc4)cccc3C(=O)N([C@H](C)CO)C[C@@H]2C)cc1, which activity change, negative = inhibition is on record?
Its activity change, negative = inhibition is 28% (inactive).

Which activity change, negative = inhibition does the source give for CC1=CC2(CO)C(=O)[C@]3(CO3)[C@H]1[C@H]1[C@]2(C)C=C(CO)C(=O)[C@]12CO2 here?
The activity change, negative = inhibition was 10.8% (inactive).

With C[C@H](CO)N1C[C@H](C)[C@@H](CN(C)C(=O)Nc2ccccc2)OCCCC[C@H](C)Oc2ccc(NC(=O)Nc3cccc4ccccc34)cc2C1=O as the molecule, how does the activity change, negative = inhibition read?
The activity change, negative = inhibition was 20.2% (inactive).

Which activity change, negative = inhibition does the source give for COc1ccc(S(=O)(=O)Nc2cccc3c2O[C@@H](CN(C)S(=O)(=O)c2c(C)noc2C)[C@H](C)CN([C@H](C)CO)C3=O)cc1 here?
The activity change, negative = inhibition was -3.81% (inactive).

For CO[C@H]1CN(C)C(=O)c2ccc(NC(=O)c3nc4ccccc4s3)cc2OC[C@@H](C)N(Cc2ccncc2)C[C@H]1C, which activity change, negative = inhibition is on record?
Its activity change, negative = inhibition is 20.7% (inactive).

For COc1ccc(NC(=O)Nc2cccc3c2O[C@@H](CN(C)Cc2ccc(Oc4ccccc4)cc2)[C@H](C)CN([C@@H](C)CO)C3=O)cc1, which activity change, negative = inhibition is on record?
The activity change, negative = inhibition was 18.2% (inactive).

Which activity change, negative = inhibition does the source give for C[C@H](CO)N1C[C@H](C)[C@@H](CN(C)C(=O)NC2CCCCC2)Oc2c(NC(=O)Nc3ccc(C(F)(F)F)cc3)cccc2C1=O here?
Its activity change, negative = inhibition is 28.9% (inactive).

With C[C@@H]1CN([C@H](C)CO)S(=O)(=O)c2ccc(C#CC3CCCC3)cc2O[C@H]1CN(C)C as the molecule, how does the activity change, negative = inhibition read?
Its activity change, negative = inhibition is 4.79% (inactive).

With CC(C)CC#Cc1ccc2c(c1)O[C@H](CN(C)Cc1ccc3c(c1)OCO3)[C@H](C)CN([C@@H](C)CO)S2(=O)=O as the molecule, how does the activity change, negative = inhibition read?
The activity change, negative = inhibition was 26.5% (inactive).

Which activity change, negative = inhibition does the source give for C[C@@H]1CN([C@H](C)CO)C(=O)c2cccc(NC(=O)Nc3ccc(C(F)(F)F)cc3)c2O[C@H]1CN(C)Cc1ccc(-c2ccccc2)cc1 here?
Its activity change, negative = inhibition is 8.44% (inactive).

Which activity change, negative = inhibition does the source give for COc1ccc(NC(=O)N(C)C[C@H]2Oc3ccc(NC(=O)C4CC4)cc3CC(=O)N([C@H](C)CO)C[C@H]2C)cc1 here?
Its activity change, negative = inhibition is -3.71% (inactive).

With CNC[C@H]1Oc2cc(Br)ccc2S(=O)(=O)N([C@@H](C)CO)C[C@H]1C as the molecule, how does the activity change, negative = inhibition read?
Its activity change, negative = inhibition is 5.27% (inactive).

For C[C@@H]1CN([C@H](C)CO)S(=O)(=O)c2ccc(Br)cc2O[C@H]1CN(C)Cc1cccnc1, which activity change, negative = inhibition is on record?
The activity change, negative = inhibition was 0.001% (inactive).

With COc1ccc(NC(=O)Nc2cccc3c2O[C@H](CN(C)Cc2ccc(Oc4ccccc4)cc2)[C@@H](C)CN([C@H](C)CO)C3=O)cc1 as the molecule, how does the activity change, negative = inhibition read?
The activity change, negative = inhibition was 17.1% (inactive).

For C[C@@H]1CN([C@H](C)CO)C(=O)c2cccc(NC(=O)Nc3ccc(C(F)(F)F)cc3)c2O[C@H]1CN(C)C(=O)NC1CCCCC1, which activity change, negative = inhibition is on record?
The activity change, negative = inhibition was 28.2% (inactive).

With CNC[C@@H]1Oc2cc(-c3ccc(C)cc3)ccc2S(=O)(=O)N([C@@H](C)CO)C[C@H]1C as the molecule, how does the activity change, negative = inhibition read?
Its activity change, negative = inhibition is 10.7% (inactive).

With C[C@H](CO)N1C[C@H](C)[C@H](CN(C)Cc2ccc(-c3ccccc3)cc2)Oc2ccc(NC(=O)CCCN(C)C)cc2CC1=O as the molecule, how does the activity change, negative = inhibition read?
Its activity change, negative = inhibition is 37.3% (inactive).

For O=C(C[C@H]1C[C@H]2c3cc(NS(=O)(=O)c4ccc(F)cc4)ccc3O[C@H]2[C@H](CO)O1)NCc1ccc(-c2ccccc2)cc1, which activity change, negative = inhibition is on record?
Its activity change, negative = inhibition is 17.8% (inactive).

Which activity change, negative = inhibition does the source give for C[C@@H]1CN([C@H](C)CO)C(=O)c2cccc(NC(=O)Nc3ccc4c(c3)OCO4)c2O[C@H]1CN(C)Cc1ccc(-c2ccccc2)cc1 here?
The activity change, negative = inhibition was 6.58% (inactive).

Which activity change, negative = inhibition does the source give for C[C@@H]1CN([C@H](C)CO)S(=O)(=O)c2ccc(C#CCN(C)C)cc2O[C@@H]1CN(C)Cc1ccc(F)cc1 here?
The activity change, negative = inhibition was 0.874% (inactive).

For CO[C@@H]1CN(C)C(=O)c2cc(NC(=O)c3nc4ccccc4s3)ccc2OC[C@H](C)N(Cc2ccncc2)C[C@@H]1C, which activity change, negative = inhibition is on record?
The activity change, negative = inhibition was 13.2% (inactive).

With C[C@@H]1CN([C@H](C)CO)C(=O)c2cccc(NC(=O)Nc3ccc(C(F)(F)F)cc3)c2O[C@@H]1CN(C)S(=O)(=O)c1ccc(Cl)cc1 as the molecule, how does the activity change, negative = inhibition read?
Its activity change, negative = inhibition is 46.7% (inactive).

With CO[C@@H]1CN(C)C(=O)c2ccc(NC(=O)c3ccc(-c4ccccc4)cc3)cc2OC[C@H](C)NC[C@@H]1C as the molecule, how does the activity change, negative = inhibition read?
Its activity change, negative = inhibition is 17% (inactive).

For CO[C@@H]1CN(C)C(=O)c2cc(NC(=O)c3ccc(-c4ccccc4)cc3)ccc2OC[C@H](C)NC[C@@H]1C, which activity change, negative = inhibition is on record?
Its activity change, negative = inhibition is 31.8% (inactive).

Which activity change, negative = inhibition does the source give for C[C@@H]1CN([C@@H](C)CO)C(=O)c2cc(NC(=O)Nc3cccc4ccccc34)ccc2O[C@@H](C)CCCCO[C@H]1CN(C)S(=O)(=O)c1ccc(F)cc1 here?
The activity change, negative = inhibition was 34.1% (inactive).

For C[C@H](CO)N1C[C@H](C)[C@@H](CN(C)C(=O)Nc2cccc3ccccc23)Oc2ccc(NC(=O)CCN3CCOCC3)cc2C1=O, which activity change, negative = inhibition is on record?
The activity change, negative = inhibition was 38.8% (inactive).

With C[C@H](CO)N1C[C@H](C)[C@@H](CN(C)S(=O)(=O)c2ccc(Cl)cc2)Oc2c(NC(=O)Nc3ccc(C(F)(F)F)cc3)cccc2C1=O as the molecule, how does the activity change, negative = inhibition read?
The activity change, negative = inhibition was 61.8% (inactive).

With C[C@@H]1CN([C@H](C)CO)C(=O)Cc2cc(NC(=O)CCCN(C)C)ccc2O[C@@H]1CN(C)Cc1ccc(Oc2ccccc2)cc1 as the molecule, how does the activity change, negative = inhibition read?
Its activity change, negative = inhibition is 22.2% (inactive).

For CO[C@@H]1CN(C)C(=O)c2cc(NC(=O)c3ccc(-c4ccccc4)cc3)ccc2OC[C@@H](C)NC[C@@H]1C, which activity change, negative = inhibition is on record?
The activity change, negative = inhibition was 6.12% (inactive).

For O=C(C[C@@H]1C[C@@H]2c3cc(NC(=O)C4CCC4)ccc3O[C@@H]2[C@H](CO)O1)NCc1ccc(Cl)cc1, which activity change, negative = inhibition is on record?
Its activity change, negative = inhibition is -2.36% (inactive).

With CO[C@H]1CN(C)C(=O)c2ccc(NC(=O)c3ccc(-c4ccccc4)cc3)cc2OC[C@H](C)NC[C@H]1C as the molecule, how does the activity change, negative = inhibition read?
The activity change, negative = inhibition was 4.8% (inactive).

With C[C@H](CO)N1C[C@H](C)[C@H](CN(C)Cc2cccnc2)Oc2cc(C#CC3CCCCC3)ccc2S1(=O)=O as the molecule, how does the activity change, negative = inhibition read?
The activity change, negative = inhibition was 24.1% (inactive).

Same assay, conditions: Clostridioides difficile clinical isolate growth, OD600, 24 h; at 135 µM (top of the series)

With CO[C@@H]1CN(C)C(=O)c2cc(NC(=O)c3ccc(Oc4ccccc4)cc3)ccc2OC[C@H](C)NC[C@H]1C as the molecule, how does the activity change, negative = inhibition read?
Its activity change, negative = inhibition is 24.9% (inactive).

With CNC[C@H]1Oc2ccc(NC(=O)C3CC3)cc2CC(=O)N([C@@H](C)CO)C[C@H]1C as the molecule, how does the activity change, negative = inhibition read?
Its activity change, negative = inhibition is -0.275% (inactive).

For C[C@H]1CN([C@@H](C)CO)C(=O)Cc2cc(NC(=O)C3CC3)ccc2O[C@@H]1CN(C)Cc1ccc(-c2ccccc2)cc1, which activity change, negative = inhibition is on record?
Its activity change, negative = inhibition is 17.1% (inactive).

Which activity change, negative = inhibition does the source give for C[C@@H]1CN([C@H](C)CO)C(=O)Cc2cc(NC(=O)CCC(F)(F)F)ccc2O[C@H]1CN(C)Cc1ccc(Oc2ccccc2)cc1 here?
Its activity change, negative = inhibition is 25.5% (inactive).

Which activity change, negative = inhibition does the source give for C[C@@H]1CN([C@H](C)CO)C(=O)c2cccc(NC(=O)Nc3ccc4c(c3)OCO4)c2O[C@@H]1CN(C)Cc1ccc(-c2ccccc2)cc1 here?
The activity change, negative = inhibition was 12.1% (inactive).

Which activity change, negative = inhibition does the source give for C[C@H](CO)N1C[C@H](C)[C@H](CN(C)Cc2ccc(Oc3ccccc3)cc2)Oc2ccc(NC(=O)CCCN(C)C)cc2CC1=O here?
Its activity change, negative = inhibition is 34.3% (inactive).
